The subject of one data set is monocytes. As to the kind of experiment: Monocyte Recruitment Assay (chemotaxis of monocytes). Type of data set: cell-based. The settings on record: Table 3; for EC50: Monocyte, read-out: Monocyte Recruitment Assay ED50. As for the experimental part: Monocyte Recruitment Assay
The recruitment or chemotaxis of monocytes was assayed by methods well known to those skilled in the art. In particular, the method set forth in J. Clin. Invest., 1988;82:1853-1863, which is hereby incorporated by reference, was used.

Data set [1] addresses T1, rabbit reticulocyte 15-LO (Oryctolagus cuniculus, UniProt P12530).
T1 construct: Fifteen-lipoxygenase was obtained from phenylhydrazine-treated rabbits and purified per the method of Rapoport; from tissue; host or cells: reticulocytes of phenylhydrazine-treated rabbits
T1 sequence (P12530 1-663): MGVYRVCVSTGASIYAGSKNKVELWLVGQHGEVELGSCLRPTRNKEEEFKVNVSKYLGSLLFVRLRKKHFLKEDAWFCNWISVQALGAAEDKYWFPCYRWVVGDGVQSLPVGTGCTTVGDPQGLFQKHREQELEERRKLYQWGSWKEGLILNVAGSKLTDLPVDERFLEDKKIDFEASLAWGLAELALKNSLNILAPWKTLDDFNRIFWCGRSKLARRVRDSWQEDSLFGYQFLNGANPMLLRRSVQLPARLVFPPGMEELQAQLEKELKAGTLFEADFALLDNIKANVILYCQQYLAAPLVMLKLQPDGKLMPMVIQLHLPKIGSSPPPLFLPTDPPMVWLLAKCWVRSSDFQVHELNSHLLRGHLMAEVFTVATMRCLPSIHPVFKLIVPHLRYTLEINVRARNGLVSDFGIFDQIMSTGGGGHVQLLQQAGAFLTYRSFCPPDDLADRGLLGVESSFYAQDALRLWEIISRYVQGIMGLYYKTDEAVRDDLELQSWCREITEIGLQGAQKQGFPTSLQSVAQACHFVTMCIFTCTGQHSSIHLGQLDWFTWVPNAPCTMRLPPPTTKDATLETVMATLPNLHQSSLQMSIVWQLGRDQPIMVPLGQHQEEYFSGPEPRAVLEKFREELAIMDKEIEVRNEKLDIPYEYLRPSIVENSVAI
Nature of the data set: Rabbit Reticulocyte 15-LO Assay (h15LO). It is filed as biochemical. The note with it: Table 2; for IC50: 2U rabbit reticulocyte 15-LO, 174 μM linoleic acid, 15 minutes at 4° C. In short, it runs like this:
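Linoleic acid oxidation to 13-HPODE measured at 4° C. over 15 minutes, using 174 μM substrate and 2U enzyme purified from phenylhydrazine-treated rabbits in PBS/0.2% Na cholate. Product peak areas calibrated with authentic 13-HODE; inhibition expressed versus maximal reaction.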

Data set [2] deals with Rabbits fed a 0.25% cholesterol, 3% peanut oil, 3% coconut oil diet. Nature of the data set: In vivo tests: aortic atherosclerotic lesions in rabbits fed a cholesterol diet. The note with it: 10 mg/kg as diet admix, 12 weeks. Here is the method: The entire descending thoracic aorta was assayed for its cholesteryl ester (CE), free cholesterol phospholipid content. The lipids were extracted in chloroform:methanol (2:1) by the procedure of Folch, et al. (Folch J., Lees M., Sloane-Stanley G. H. A simple method for the isolation and purification of total lipids from animal tissue, J. Biol. Chem., 1957;226:497-509) and 300-500 μL of an internal standard, i.e., 200 mg/ml solution of 4-hydroxy-cholesterol in ethyl acetate:acetone (2:1), was added to the extracts of the thoracic aortic samples. After extraction, the organic phase was dried under nitrogen and redissolved in isooctane/tetrahydro-furan (97:3). The lipid content and composition of the thoracic aorta were measured using an HPLC method.
For histologic evaluation of the aortic arch lesions and for quantification of aortic arch cross-sectional lesion area, a 1 cm segment of the ascending aorta distal to the aortic valves was fixed in 10% neutral buffered formalin for 24 hours. The vessels were dehydrated, cleared in xylene, and infiltrated with molten paraffin (<60° C.) using a Tissue Tek VIP autoprocessor (Miles Scientific, Elkhart, Ind.). The tissue segments were embedded in paraffin and sectioned at 5 μm with a Reichert-Jung microtome (Baxter, McGraw Park, Ill.). In order to obtain a thorough representation of the histologic appearance of the aortic arch lesions, 3 ribbons of 20 sections each were cut. Each ribbon of sections was spaced approximately 100 μm apart. Three pairs of sections, i.e., 1 pair from each ribbon, were affixed to cleaned 3-aminopropyltriethoxy-silane coated glass slides and stored until stained. The general histologic character was evaluated in Verhoeff's elastica stained sections.
The gross extent of atherosclerosis within the aortic arch was measured. In addition, sections of the aortic arch, a site of hypercholesterolemia-induced lesions, stained using the Verhoeff's elastica procedure were used for quantification of lesion cross-sectional. The internal elastic lamina (IEL) was identified as a blue-black ring and images of that region were collected using a digital camera. The area within the IEL was quantified using the Image Pro Plus image analysis software. The area of the lumen of the aortic arch was also quantified in a similar fashion. Lesion area was defined as the difference between the area circumscribed by the internal elastic lamina and the lumen area.
Aortic arch lesion extent was also measured. The area distal to the 1 cm segment taken for histologic evaluation to the first intercostal ostia was removed from the animal, opened longitudinally and images of the surface of the vessel was collected using a digital camera. The lesions were identified as raised, opaque areas and their area was determined using the Image Pro Plus image analysis software. The area of the entire aortic arch was also determined. The percentage of aortic arch covered by atherosclerotic lesions was calculated.

Molecules are shown by their SMILES.

`COc1ccc(C(=O)Nc2ccccc2)cc1Nc1ccccc1` [Example 28, 4-Methoxy-3-phenylainino-N-phenyl-benzamide]: the melting point (commonly the temperature of the solid-liquid transition) was in the range of 194 to 195 °C. The “Monocyte Recruitment Assay % @ 30 μM” value with monocytes was 25% @ 30 μM. Moreover, the IC50 (commonly the point on the concentration scale where inhibition reaches its midpoint) in data set [1] was determined as 39 nM.
As for `COc1ccc(C(=O)Nc2ccccc2)cc1Nc1cc(Cl)cc(Cl)c1` [Example 35, 3-(3,5-Dichloro-phenylamino)-4-methoxy-N-phenyl-benzamide], the EC50 in the data set on monocytes worked out at 26300 nM. This molecule also gave a half-inhibitory concentration (IC50) in data set [1] of 7 nM.
On to `COc1ccc(C(=O)Nc2ccccc2)cc1NCc1cc(Cl)cc(Cl)c1` [Example 51, 3-(3,5-Dichloro-benzylamino)-4-methoxy-N-phenyl-benzamide], for which, in the data set with monocytes, the EC50 is 20000 nM. Besides, the inhibition at 10 µM in data set [1] (0.25 h, @ 10 μM, read-out: h15LO % @ 10 μM) was 69%.
`O=C(Nc1ccccc1)c1ccc(O)c(Nc2cc(Cl)cc(Cl)c2)c1` [Example 56, 4-Hydroxy-3-(3,5-dichloro-phenylamino)-N-phenyl-benzamide] had a melting point of 160 to 162 °C. In the data set on monocytes, the EC50 worked out at 2600 nM. The molecule also had an IC50 in data set [1] of 18 nM.
In turn, `COc1ccc(C(=O)Nc2ccccc2)cc1NC(=S)Nc1cc(Cl)cc(Cl)c1` [Example 60, 3-[3-(3,5-Dichlorophenyl)-thioureido]-4-methoxy-N-phenyl-benzamide] returned a melting point of 195 to 197 °C. In addition, in data set [2], the “Aortic Arch Cross-Sectional Lesion Area (% Δ from Control)” value is reported as “+84 % Δ from Control”, the “Aortic Arch Lesion Extent (% Δ from Control)” value was “+40 % Δ from Control” and the “Aortic Cholesteryl Ester Content (% Δ from Control)” value is listed as “+59 % Δ from Control”. Further, the EC50 with monocytes stood at 17600 nM. This molecule also came in with an IC50 in data set [1] of 8.6 nM.
Turning to `COc1ccc(C(=O)Nc2ccccc2)cc1NC(=S)Nc1ccc(Cl)cc1` [Example 65, 3-[3-(4-Chlorophenyl)-thioureido]-4-methoxy-N-phenyl-benzamide], the melting point lay within 179 to 180 °C. Besides, the EC50 with monocytes is 22700 nM. Moreover, the IC50 in data set [1] worked out at 42 nM.
`COc1ccc(C(=O)Nc2ccccc2)cc1NC(=S)Nc1cccc([N+](=O)[O-])c1` [Example 66, 3-[3-(3-Nitrophenyl)-thioureido]-4-methoxy-N-phenyl-benzamide] gave a melting point of 188 to 189 °C. In addition, the “Monocyte Recruitment Assay % @ 30 μM” value with monocytes stood at 38% @ 30 μM. This molecule also registered an IC50 in data set [1] of 7 nM.
On to `COc1ccc(C(=O)Nc2ccccc2)cc1NC(=S)NC(=O)c1ccccc1` [Example 67, 4-Methoxy-N-phenyl-3-(3-benzoyl-thioureido)-benzamide], for which, in the data set with monocytes, the EC50 came to 24100 nM. Moreover, inhibition in data set [1] was half-maximal at 10000 nM (IC50).
The molecule `COc1ccc(C(=O)Nc2ccccc2)cc1NC(=S)Nc1c(F)c(F)cc(F)c1F` [Example 68, 4-Methoxy-N-phenyl-3-[3-(2,3,5,6-tetrafluoro-phenyl)-thioureido]-benzamide] displayed a melting point of 170 to 174 °C. In the data set on monocytes, the EC50 is 2300 nM. Besides, the IC50 in data set [1] was 42 nM.
Turning to `COc1ccc(C(=O)Nc2ccccc2)cc1NC(=S)Nc1ccc(C)cc1` [Example 69, 4-Methoxy-N-phenyl-3-(-3-p-tolyl-thioureido)-benzamide], in the data set with monocytes, the “Monocyte Recruitment Assay % @ 30 μM” value is recorded as 13% @ 30 μM. The IC50 in data set [1] amounted to 32 nM.
On to `COc1ccc(C(=O)Nc2ccc(Cl)c(Cl)c2)cc1NS(C)(=O)=O` [Example 119, 3-Methanesulfonylamino-4-methoxy-N-(3,4-dichlorophenyl)-benzamide], for which the melting point lay in the range of 226 to 228 °C. Also, in data set [2], the “Aortic Arch Cross-Sectional Lesion Area (% Δ from Control)” value is on record as −50 % Δ from Control, the “Aortic Arch Lesion Extent (% Δ from Control)” value was “+46 % Δ from Control” and the “Aortic Cholesteryl Ester Content (% Δ from Control)” value is listed as “+46 % Δ from Control”. The IC50 in data set [1] amounted to 90 nM.

These data come from US6528528B2 (Warner-Lambert Company, priority 1997, dated 2003).
